Measurements reported in patent US20230348418A1, “ISOINDOLINONE COMPOUNDS” (Monte Rosa Therapeutics, Inc., priority 2021, published 2023).

Tests used:
GSPT1 [1] = biological target: T1, GSPT1 (Homo sapiens, UniProt P15170); assay: GSPT1 degradation in tumors of treated mice (FIG. 3B); type: in vivo, mouse; conditions: all three dose levels (1 mg/kg, 3 mg/kg, 6 mg/kg), compared to vehicle control
T1 construct: GSPT1 levels in tumors were determined by western blotting 6 hours after the third dose; from tissue; host or cells: NCI-H1155 (ATCC CRL-5818) xenograft tumours in female BALB/c nude mice
T1 sequence (P15170 whole entry): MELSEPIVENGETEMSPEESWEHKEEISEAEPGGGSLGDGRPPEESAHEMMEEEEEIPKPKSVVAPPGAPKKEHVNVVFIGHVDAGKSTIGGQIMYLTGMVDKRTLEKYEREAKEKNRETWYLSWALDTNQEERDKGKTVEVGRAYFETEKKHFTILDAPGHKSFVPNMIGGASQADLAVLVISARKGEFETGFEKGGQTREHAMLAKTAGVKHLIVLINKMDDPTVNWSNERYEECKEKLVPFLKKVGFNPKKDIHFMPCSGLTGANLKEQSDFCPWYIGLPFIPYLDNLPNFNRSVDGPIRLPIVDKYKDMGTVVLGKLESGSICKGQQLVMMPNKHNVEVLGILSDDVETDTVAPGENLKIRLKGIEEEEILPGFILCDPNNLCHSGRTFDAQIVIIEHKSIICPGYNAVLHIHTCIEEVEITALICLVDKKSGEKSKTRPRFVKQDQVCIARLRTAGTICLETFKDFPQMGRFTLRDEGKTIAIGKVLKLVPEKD
T1 sequence (Q96SW2 whole entry, further chain): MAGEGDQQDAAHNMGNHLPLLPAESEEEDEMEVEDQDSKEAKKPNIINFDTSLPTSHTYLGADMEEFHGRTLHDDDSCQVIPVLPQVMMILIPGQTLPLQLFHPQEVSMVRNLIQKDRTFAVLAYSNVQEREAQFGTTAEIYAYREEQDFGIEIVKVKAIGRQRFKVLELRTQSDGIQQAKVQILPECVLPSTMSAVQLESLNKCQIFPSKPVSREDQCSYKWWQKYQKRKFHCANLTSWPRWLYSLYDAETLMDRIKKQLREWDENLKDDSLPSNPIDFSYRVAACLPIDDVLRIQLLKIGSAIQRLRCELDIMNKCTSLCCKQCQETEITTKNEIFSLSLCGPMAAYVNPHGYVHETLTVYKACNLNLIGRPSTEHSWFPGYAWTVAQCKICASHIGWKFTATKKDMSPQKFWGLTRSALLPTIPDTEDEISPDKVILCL
T1 sequence (Q16531 2-1140 partner limits assumed): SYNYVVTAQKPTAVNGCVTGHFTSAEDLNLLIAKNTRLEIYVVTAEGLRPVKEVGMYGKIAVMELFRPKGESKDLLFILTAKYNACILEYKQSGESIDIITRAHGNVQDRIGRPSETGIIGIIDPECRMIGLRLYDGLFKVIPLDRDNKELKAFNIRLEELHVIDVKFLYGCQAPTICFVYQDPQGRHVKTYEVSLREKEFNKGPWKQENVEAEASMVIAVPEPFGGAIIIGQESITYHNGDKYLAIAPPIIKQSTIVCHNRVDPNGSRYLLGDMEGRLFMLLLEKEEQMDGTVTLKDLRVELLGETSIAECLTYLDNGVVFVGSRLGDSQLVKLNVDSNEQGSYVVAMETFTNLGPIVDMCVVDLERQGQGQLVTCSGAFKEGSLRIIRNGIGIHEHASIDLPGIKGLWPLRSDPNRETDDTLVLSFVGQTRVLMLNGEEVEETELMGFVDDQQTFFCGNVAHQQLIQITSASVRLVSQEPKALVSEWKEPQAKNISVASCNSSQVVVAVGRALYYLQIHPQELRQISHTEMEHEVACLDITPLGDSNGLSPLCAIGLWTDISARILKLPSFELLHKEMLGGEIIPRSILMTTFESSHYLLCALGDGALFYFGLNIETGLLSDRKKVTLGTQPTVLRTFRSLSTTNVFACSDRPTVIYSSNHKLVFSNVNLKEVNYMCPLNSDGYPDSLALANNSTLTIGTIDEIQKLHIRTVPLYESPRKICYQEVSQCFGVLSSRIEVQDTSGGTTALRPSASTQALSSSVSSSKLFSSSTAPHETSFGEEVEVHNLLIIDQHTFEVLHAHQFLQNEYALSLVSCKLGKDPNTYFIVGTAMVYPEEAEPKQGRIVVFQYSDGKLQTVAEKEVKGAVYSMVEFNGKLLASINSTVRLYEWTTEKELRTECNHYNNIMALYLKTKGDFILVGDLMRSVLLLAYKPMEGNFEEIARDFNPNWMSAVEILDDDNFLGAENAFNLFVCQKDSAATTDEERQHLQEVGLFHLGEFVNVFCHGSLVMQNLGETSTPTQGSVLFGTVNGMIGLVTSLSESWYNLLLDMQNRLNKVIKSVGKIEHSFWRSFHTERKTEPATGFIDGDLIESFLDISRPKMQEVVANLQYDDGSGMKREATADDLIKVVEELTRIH

GSPT1 [2] = biological target: GSPT1 (Homo sapiens, UniProt P15170+Q96SW2); assay: Quantitative proteomics analysis in ABC1 cells; type: cell-based; conditions: 100 nM, 6 hr
Chain of GSPT1 (Homo sapiens, UniProt P15170+Q96SW2) (P15170 whole entry, the tested form may be a part): as the sequence (P15170 whole entry) above
Chain of GSPT1 (Homo sapiens, UniProt P15170+Q96SW2) (Q96SW2 whole entry, the tested form may be a part): as the sequence (Q96SW2 whole entry, further chain) above
Chain of GSPT1 (Homo sapiens, UniProt P15170+Q96SW2) (Q16531 2-1140 partner limits assumed): as the sequence (Q16531 2-1140 partner limits assumed) above
Procedure: Quantitative Proteomics Analysis: ABC1 cells were treated with either DMSO (2 replicates) or compound 10 at 100 nM (2 replicates) for 6 hr. Proteins were extracted with the PreOmics iST-NHS lysis buffer (#P.O.00030). The samples were then processed using the PreOmics kit following their recommended protocol with minor modifications. In brief, the proteins were reduced, alkylated and digested for 2 h at 37° C. The peptides were then labelled with TMT reagent (1:4; peptide:TMT label) (Thermo Fisher Scientific). After quenching, the peptides were purified, and the 16 samples were combined to a 1:1 ratio. […] Eluted TMT peptides were analyzed on an Orbitrap Eclipse mass spectrometer (Thermo Fisher Scientific). […] Precursors were fragmented by CID at a normalized collision energy (NCE) of 35% and analyzed in the ion trap. Following MS2, synchronous precursor selection (SPS) MS3 scans were collected by using high energy collision-induced dissociation (HCD) and fragments were analyzed using the Orbitrap (NCE 55%, AGC target 1×10^5, maximum injection time 120 ms, resolution 60,000). Protein identification and quantification were performed using Proteome Discoverer 2.4.0.305 with the SEQUEST algorithm and Uniprot human database (2021-01-29, 20614 protein sequences). […] Protein relative quantification was performed using an in-house developed java notebook. […]

NCI-H1155 = assay: viability of NSCLC cell line, high N-Myc (FIG. 2A); type: cell-based, human; conditions: compared to low N-Myc EBC-1 and NCI-H2023
Procedure: GSPT1 was degraded by compound 10 after six hours of treatment in high N-Myc NCI-H1155 and ABC-1 cells with a DC50 of 3 nM and 22 nM, respectively (x-axys represents […]M concentration of compound 10; y-axis represents the viability in %).

degradation of GSPT1 in tumors (GSPT1 [1]): complete degradation
Structure (SMILES): Cc1ccc(NC(=O)OCc2ccc3c(c2)C(=O)N(C2CCC(=O)NC2=O)C3)cc1Cl (stereo not drawn) [Compound 10]
Protein downregulation in mass spectrometry-based proteomics (FIG. 1B) (GSPT1 [2]): GSPT1 was the most statistically significant downregulated protein | sensitivity to treatment (viability in %) (NCI-H1155): highly sensitive
